Experimental findings from patent US20130324412A1, “N-ALKOXYAMIDES OF 6-(SUBSTITUTED PHENYL)-4-AMINOPICOLINATES AND 2-(SUBSTITUTED PHENYL)-6-AMINO-4-PYRIMIDINECARBOXYLATES AND THEIR USE AS SELECTIVE HERBICIDES FOR CROPS” (DOW AGROSCIENCES LLC, priority 2009, published 2013) are described below.

SMILES strings stand for the structures.

Test [1] deals with lambsquarters (Chenopodium album). The test can be described thus: Postemergence herbicidal activity in oilseed rape (canola), lambsquarters. The class given is in vivo. Set-up: unit: g ai/ha. To be noted: oilseed rape (canola) test, visual rating after 21 d, probit analysis, dose to kill or control 80 percent. The protocol: (§1) Seeds of oilseed rape (canola) and the desired weed species were planted in Sun Gro MetroMix® 360 planting mixture, which typically has a pH of 6.0 to 6.8 and an organic matter content of about 30 percent, in plastic pots with a surface area of 95 cm^2. When required to ensure good germination and healthy plants, a fungicide treatment and/or other chemical or physical treatment was applied. The plants were grown for 15-28 d in a greenhouse with an approximate 15-h photoperiod which was maintained at about 23-29° C. during the day and 22-28° C. during the night. Nutrients and water were added on a regular basis and supplemental lighting was provided with overhead metal halide 1000-Watt lamps as necessary. The oilseed rape (canola) plants were utilized for testing when they reached the third or fourth true leaf stage. The weed species were utilized at the fourth true leaf stage.
A weighed amount, determined by the highest rate to be tested, of each test compound was dissolved in 4 mL of a 97:3 v/v mixture of acetone and DMSO to obtain concentrated stock solutions. […] The concentrated stock solutions obtained were diluted with 20 mL of an aqueous mixture containing acetone, water and Agri-Dex crop oil concentrate, in a 16.7:82.1:1.25 v/v ratio to obtain spray solutions containing the highest application rates. Additional application rates were obtained by serial dilution of 12 mL of the high rate solution into a solution containing 2 mL of 97:3 v/v mixture of acetone and DMSO and 10 mL of an aqueous mixture containing acetone, water and Agri-Dex crop oil concentrate, in a 16.7:82.1:1.25 v/v ratio to obtain ½×, ¼×, ⅛× and 1/16× rates of the high rate. Compound requirements are based upon a 12 mL application volume at a rate of 187 L/ha. Formulated compounds were applied to the plant material with an overhead Mandel track sprayer equipped with 8002E nozzles calibrated to deliver 187 L/ha over an application area of 0.503 m^2 at a spray height of 18 inches (43 cm) above the average plant canopy height. Control plants were sprayed in the same manner with the solvent blank.
The treated plants and control plants were placed in a greenhouse as described above and watered by sub-irrigation to prevent wash-off of the test compounds. After 21 d, the condition of the test plants as compared with that of the untreated plants was determined visually and scored on a scale of 0 to 100 percent where 0 corresponds to no injury and 100 corresponds to complete kill.
By applying the well-accepted probit analysis as described by J. Berkson in Journal of the American Statistical Society 1953, 48, 565, and by D. Finney in “Probit Analysis” Cambridge University Press (1952), the above data can be used to calculate GR20 and GR80 values, which are defined as growth reduction factors that correspond to the effective dose of herbicide required to kill or control 20 percent or 80 percent, respectively, of a target plant.

For test [2], the system named is pigweed, redroot (Amaranthus retroflexus). Put plainly: Postemergence herbicidal activity in corn, redroot pigweed. The class given is in vivo. To be noted: corn test, visual rating after 21 d, probit analysis, dose to kill or control 80 percent. The protocol:
as §1, with “corn” for “oilseed rape (canola)”, “MetroMix” for “MetroMix®”, “7-21” for “15-28”, “second” for “third or fourth”, “first or second” for “fourth”
A weighed amount, determined by the highest rate to be tested, of each test compound was dissolved in 4 mL of a 97:3 v/v mixture of acetone and DMSO to obtain concentrated stock solutions. […] The concentrated stock solutions obtained were diluted with 20 mL of an aqueous mixture containing acetone, water, isopropyl alcohol, DMSO, Atplus 411F crop oil concentrate, and Triton X-155 surfactant in a 48.5:39:10:1.5:1.0:0.02 v/v ratio to obtain spray solutions containing the highest application rates. […]
The treated plants and control plants were placed in a greenhouse as described above and watered by sub-irrigation to prevent wash-off of the test compounds. After 21 d, the condition of the test plants as compared with that of the untreated plants was determined visually and scored on a scale of 0 to 100 percent where 0 corresponds to no injury and 100 corresponds to complete kill. […]

As to `CONC(=O)c1nc(-c2ccc(Cl)c(OC)c2F)cc(N)c1Cl` [Compound 2, 4-Amino-3-chloro-6-(4-chloro-2-fluoro-3-methoxyphenyl)-N-methoxypicolinamide], the “CHEAL GR80” value in test [1] was found to be 22. For the same molecule, in test [2], the “AMARE GR80” value is listed as less than 4 g ai/ha.

As for `COc1c(Cl)ccc(-c2cc(N)c(Cl)c(C(=O)NOCC(C)C)n2)c1F` [Compound 1, 4-amino-3-chloro-6-(4-chloro-2-fluoro-3-methoxyphenyl)-N-(2-methylpropoxy)picolinamide], the “CHEAL GR80” value in test [1] is less than 8.75. For the same molecule, the “AMARE GR80” value in test [2] is listed as 14 g ai/ha.
